# Data: patent EP2016954A1, “Antibodies against 4-(methylnitrosamino)-1-(3-pyridyl)-1-butanone and metabolites thereof” (Muller, Claude P., priority 2007, dated 2009)
# Where “and” joins values, the source holds several entries; their conditions need not be identical. Identical values can stand only once.
# Legend:
# P7H3 = test: Competition ELISA with mAb P7H3; format: binding, mouse; details: for IC50: competitor inhibiting binding of P7H3; for inhibition of P7H3 binding: competition ELISA, result in words
# Experimental: (§1) In all competition experiments, optimal antigen coating conditions and serum dilutions were determined by direct ELISA. 384-well plates were coated with the minimal amount of antigen required for maximal signal. Sera or mAb supernatants were diluted to obtain 70% binding and a signal of 1.0 to 1.5 O.D. at 0% competition (highest signal). The competitors (NNK and its metabolites (NNAL, NNK-N-ox, NNAL-N-ox, keto acid (1-(3-pyridyl)-1-butanone-4-carboxylic acid), PBCA (1-(3-pyridyl)-1-butanol-4-carboxylic acid), PB (1-(3-pyridyl)-1-butanediol) and HPB (4-hydroxy-1-(3-pyridyl)-1-butanone)), from Toronto Research Chemicals Inc., Canada and Acros Organics, Geel, Belgium) were resuspended in 100% dimethylsulfoxide and stock solutions of […] were frozen at -80°C. Competitors were mixed 1:1 with sera or mAb supernatants to final concentrations of 0 to 512 µM for mAbs or 0 to 1024 µM for serum. Zero (highest signal) and 100% competition (background signal) were determined using no or NNK-C2 as competitor. The difference between these two values corresponds to the dynamic range of the assay. For each competitor concentration, the 50% of inhibitory concentration, IC50 was calculated. Experiments were independently repeated three times and data were analyzed used SigmaStat software. Net OD was calculated by subtraction of the relevant background as described in each figure.
# P9D5 = test: Competition ELISA with mAb P9D5 on immobilized [NNK-C2]-OVA; format: binding, mouse; details: for IC50: competitor inhibiting binding of P9D5 to [NNK-C2]-OVA; for IC50 compared with the one of NNK: P9D5, result in words; for inhibition of P9D5 binding: competition ELISA, result in words
# Experimental: as §1
# P9D5 and P7H3 = test: Competition ELISA, results stated jointly for both mAbs; format: binding, mouse; details: for IC50: range over P9D5 and P7H3; for binding of the antibodies: N-oxidation of the pyridyl ring, result in words
# Experimental: as §1
# anti-[NNK-C2]-DT sera = test: Competition ELISA with mouse sera on coated [NNK-C2]-OVA; format: binding, BALB/c mice; details: for IC50: competitor inhibiting binding of serum antibodies to coated [NNK-C2]-OVA; for specific reactivity of mouse sera: competition ELISA
# Experimental: Specific antibodies were monitored after each injection of [NNK-C2]-DT. […] NNK-specific antibodies were monitored by competition ELISA by adding increasing concentrations of NNK as competitors (0-256µM) (Figure 1) to measure their capacity to inhibit the binding of serum antibodies to coated [NNK-C2]-OVA.
# as §1
# NCI-H82 cells = test: NNK-induced proliferation of NCI-H82 cells (ATP bioluminescence); format: cell-based, human; details: NNK 25 nM, 24h
# Experimental: NCI-H82 cells were obtained from European Collection of Cell Cultures and maintained in RPMI 1640 with 2 mM L-glutamine (Biowhittaker, Verviers, BE) with the above supplements ("NCI-H82 medium"). Every 2 or 3 days cell medium was renewed. Cells were subcultured once a week. All cultures were mycoplasma-free.
# For proliferation experiments, NCI-H82 cells were seeded at a concentration of about 8 x 10^3 cells/well in 200 µl of NCI-H82 medium on collagen type I coated 96-well plates (Greiner Bio-one, Wemmel, BE) and incubated at 37°C and 10% CO2. Proliferation assays were performed at 10% CO2 since CO2 seems to act as a potent messenger molecule for SCLC cells, enhancing the susceptibility of this cancer cell to a host of autocrine and paracrine growth-stimulating signals. After 18h, medium was replaced by fresh NCI-H82 medium containing only 0.15% heat-inactivated fetal bovine serum ("low serum medium") 6h prior NNK treatment. Stock solutions of NNK were prepared in dimethyl sulfoxide. […] Cell proliferation was assessed 24h after treatment using the ViaLightTM HS kit according to the manufacturer's instructions (Cambrex Bioscience, Verviers, BE). Bioluminescence of ATP present in metabolically active cells, was measured on a GENios Plus fluorescence plate reader (Tecan, Mechelen, BE). […]
Structure (SMILES),IC50 (P9D5),IC50 (P9D5 and P7H3),inhibition of P7H3 binding (P7H3),IC50 (anti-[NNK-C2]-DT sera),also measured
"CCOC(=O)c1cccnc1 [ENAT, ethylnicotinate]",49 µM,49 to 80 µM,,,IC50 (P7H3): 80 µM
"OCCCC(O)c1cccnc1 (centres unmarked) [PB, 1-(3-pyridyl)-1-butanediol]",72 µM,,moderately inhibited,230 µM,
"CN(CCCC(=O)c1ccc[n+]([O-])c1)N=O [NNK-N-Ox, 4-(methylnitrosamino)-1-(3-pyridyl-N-oxide)-1-butanone]",,,,,specific reactivity of mouse sera (anti-[NNK-C2]-DT sera): essentially no specific reactivity was detected; binding of the antibodies (P9D5 and P7H3): totally obliterates binding
"NCCN(CCCC(=O)c1cccnc1)N=O [NNK-C2, 4-[2-amino-ethyl(nitrosamino)]-1-pyridine-3-yl-butane-1-one]",3.7 µM,4.4 to 12 µM,,,
Cc1cccnc1 [3-picoline],400 µM,,,,IC50 (P7H3): 320 µM
"O=C(O)CCC(O)c1cccnc1 (centres unmarked) [PBCA, 1-(3-pyridyl)-1-butanol-4 carboxylic acid]",,,moderately inhibited,,IC50 compared with the one of NNK (P9D5): significant increase of the IC50; inhibition of P9D5 binding (P9D5): moderate inhibition
"O=C(O)CCC(=O)c1cccnc1 [keto acid, 1-(3-pyridyl)-1-butanone-4 carboxylic acid]",,,moderately inhibited,,IC50 compared with the one of NNK (P9D5): significant increase of the IC50; inhibition of P9D5 binding (P9D5): moderate inhibition
"O=C(O)c1ccc[n+]([O-])c1 [NIA-N-Ox, nicotinic acid-N-oxide]",,,,,binding of the antibodies (P9D5 and P7H3): totally obliterates binding
"CN(CCCC(=O)c1cccnc1)N=O [NNK, 4-(methylnitrosamino)-1-(3-pyridyl)-1-butanone]",63 µM and 80 µM,80 to 160 µM,,26 µM,IC50 (P7H3): 160 µM; increase of cell number in comparison to unstimulated control cells (NCI-H82 cells): 2 to 3 fold
"CN(CCCC(O)c1cccnc1)N=O (centres unmarked) [NNAL, 4-(methylnitrosamino)-1-(3-pyridyl)-1-butanol]",20 µM,29 to 93 µM,,80 µM,
"O=C(CCCO)c1cccnc1 [HPB, 4-hydroxy-1-(3-pyridyl)-1-butanone]",50 µM,,moderately inhibited,80 µM,
"CN(CCCC(O)c1ccc[n+]([O-])c1)N=O (centres unmarked) [NNAL-N-Ox, 4-(methylnitrosamino)-1-(3-pyridyl-N-oxide)-1-butanol]",,,,,specific reactivity of mouse sera (anti-[NNK-C2]-DT sera): essentially no specific reactivity was detected; binding of the antibodies (P9D5 and P7H3): totally obliterates binding
